Test results taken from patent US20050250752A1, “Cembranoids with chemopreventive activity” (priority 2002, published 2005).

Experiments:
[1] = test system: Epstein-Barr virus early antigen (EBV-EA) of Raji cells induced by tumor promoter (TPA); test: Inhibition of EBV-EA activation induced by TPA in Raji cells; type: cell-based; conditions: TPA 32 pmol, Raji cells, 48 h
Method: (§1) The inhibition of EBV-EA activation was assayed using Raji cells (virus non-producer type). The indicator cells (Raji, 1×10^6/ml) were incubated at 37° C. for 48 h in 1 ml of medium containing n-butyric acid (4 mmol), TPA(12-O-tetradecanoylphorbol 13-acetate)(32 pmol=20 ng in 2 μl DMSO) as inducer and various amounts of test compounds in 5 μl DMSO. Smears were made from the cell suspension, and the activated cells, which were stained by EBV-EA positive serum from nasopharygeal carcinoma patients were detected by an indirect immunofluorescence technique. For each compound, assays were performed in triplicate. The average EBV-EA induction of the test compounds was expressed as a relative ratio to the control experiment (100%), which was carried out only with n-butyric acid plus TPA. The viability of treated Raji cells was assayed by the Trypan Blue staining method.

Raji cells = test: Viability of treated Raji cells (Trypan Blue staining); type: cell-based
Method: as §1

[2] = test system: papillomas (mouse skin carcinogenesis induced by DMBA/TPA); test: Two-stage mouse skin carcinogenesis model induced by DMBA/TPA; type: in vivo, mouse (female ICR); conditions: topical 85 nm 1 hour before TPA, ICR mice
Method: In the two-stage mouse skin carcinogenesis model induced by DMBA/TPA, the animals (specific pathogen-free female ICR, 6 weeks old) were divided into 5 groups, 15 mice each. The back of each mouse was shaved with surgical clippers, and the mice were topically treated with DMBA (100 μg, 390 nmol) in acetone (0.1 ml) as an initiation treatment. For the positive control group, 1 week after initiation with DMBA, mice were promoted by the application with TPA (1 μg, 1.7 nmol) in acetone (0.1 ml) twice a week. The other four groups received a topical application of each of the sarcophine semi-synthetic derivatives (85 nm) 1 hour before application of the tumor promoter. The incidence of papillomas was observed weekly for 20 weeks. The percentage of mice bearing papillomas and the average number of papillomas per mouse were recorded.

[3] = x 1000 mol ratio/TPA (32 nmol/mL)

## CC1=CC=C([C@@](C)(O)CO)C[C@@H](O)C(C)=CCCC2(C)OC2CC1 (stereo partly drawn) [Compound 13, 7,8-Epoxy-1,3,11-cembratriene-13R(α),15R(α),16-triol]
[1]; x 10 mol ratio/TPA
  EBV-EA induction, percentage relative to the positive control value (100%): 92.6%
[1]; x 100 mol ratio/TPA
  EBV-EA induction, percentage relative to the positive control value (100%): 72.9%
[1]; x 500 mol ratio/TPA
  EBV-EA induction, percentage relative to the positive control value (100%): 54.2%
[1]; [3]
  EBV-EA induction, percentage relative to the positive control value (100%): 5.7%
Raji cells; x 10 mol ratio/TPA
  viability percentage of Raji cells (indicator cells): > 80%
Raji cells; x 100 mol ratio/TPA
  viability percentage of Raji cells (indicator cells): > 80%
Raji cells; x 500 mol ratio/TPA
  viability percentage of Raji cells (indicator cells): > 80%
Raji cells; [3]
  viability percentage of Raji cells (indicator cells): 60%

## CC1=C2CC/C(C=O)=C/CC[C@]3(C)O[C@H]3CC/C(C)=C/[C@@H]2OC1=O [Compound 6, sarcophine-20-carboxyaldehyde]
[1]; x 10 mol ratio/TPA
  EBV-EA induction, percentage relative to the positive control value (100%): 96.0%
[1]; x 100 mol ratio/TPA
  EBV-EA induction, percentage relative to the positive control value (100%): 78.2%
[1]; x 500 mol ratio/TPA
  EBV-EA induction, percentage relative to the positive control value (100%): 60.8%
[1]; [3]
  EBV-EA induction, percentage relative to the positive control value (100%): 12.7%
Raji cells; x 10 mol ratio/TPA
  viability percentage of Raji cells (indicator cells): > 80%
Raji cells; x 100 mol ratio/TPA
  viability percentage of Raji cells (indicator cells): > 80%
Raji cells; x 500 mol ratio/TPA
  viability percentage of Raji cells (indicator cells): > 80%
Raji cells; [3]
  viability percentage of Raji cells (indicator cells): 60%

## C/C(CO)=C1\CC/C(C)=C/CCC2(C)OC2CC/C(C)=C/C1O (stereo not drawn) [Compound 10]
[2]; week 1 of promotion
  Papilloma Bearer (%): 0.0%
  Papillomas/mouse: 0.0
[2]; week 2 of promotion
  Papilloma Bearer (%): 0.0%
  Papillomas/mouse: 0.0
[2]; week 3 of promotion
  Papilloma Bearer (%): 0.0%
  Papillomas/mouse: 0.0
[2]; week 4 of promotion
  Papilloma Bearer (%): 0.0%
  Papillomas/mouse: 0.0
[2]; week 5 of promotion
  Papilloma Bearer (%): 0.0%
  Papillomas/mouse: 0.0
[2]; week 6 of promotion
  Papilloma Bearer (%): 0.0%
  Papillomas/mouse: 0.0
[2]; week 7 of promotion
  Papilloma Bearer (%): 0.0%
  Papillomas/mouse: 0.0
[2]; week 8 of promotion
  Papilloma Bearer (%): 13.3%
  Papillomas/mouse: 0.5
[2]; week 9 of promotion
  Papilloma Bearer (%): 13.3%
  Papillomas/mouse: 0.9
[2]; week 10 of promotion
  Papilloma Bearer (%): 26.6%
  Papillomas/mouse: 1.3
[2]; week 11 of promotion
  Papilloma Bearer (%): 33.3%
  Papillomas/mouse: 1.8
[2]; week 12 of promotion
  Papilloma Bearer (%): 40.0%
  Papillomas/mouse: 2.1
[2]; week 13 of promotion
  Papilloma Bearer (%): 46.6%
  Papillomas/mouse: 2.3
[2]; week 14 of promotion
  Papilloma Bearer (%): 53.3%
  Papillomas/mouse: 2.5
[2]; week 15 of promotion
  Papilloma Bearer (%): 60.0%
  Papillomas/mouse: 2.7
[2]; week 16 of promotion
  Papilloma Bearer (%): 73.3%
  Papillomas/mouse: 3.1
[2]; week 17 of promotion
  Papilloma Bearer (%): 73.3%
  Papillomas/mouse: 3.6
[2]; week 18 of promotion
  Papilloma Bearer (%): 80.0%
  Papillomas/mouse: 4.0
[2]; week 19 of promotion
  Papilloma Bearer (%): 80.0%
  Papillomas/mouse: 4.6
[2]; week 20 of promotion
  Papilloma Bearer (%): 80.0%
  Papillomas/mouse: 4.8
[1]; x 10 mol ratio/TPA
  EBV-EA induction, percentage relative to the positive control value (100%): 94.1%
[1]; x 100 mol ratio/TPA
  EBV-EA induction, percentage relative to the positive control value (100%): 75.5%
[1]; x 500 mol ratio/TPA
  EBV-EA induction, percentage relative to the positive control value (100%): 57.3%
[1]; [3]
  EBV-EA induction, percentage relative to the positive control value (100%): 9.6%
Raji cells; x 10 mol ratio/TPA
  viability percentage of Raji cells (indicator cells): > 80%
Raji cells; x 100 mol ratio/TPA
  viability percentage of Raji cells (indicator cells): > 80%
Raji cells; x 500 mol ratio/TPA
  viability percentage of Raji cells (indicator cells): > 80%
Raji cells; [3]
  viability percentage of Raji cells (indicator cells): 60%

## C/C1=C\C=C(\C(C)(O)CO)CC/C(C=O)=C/CCC2(C)OC2CC1 (stereo not drawn) [Compound 15, 7,8-Epoxy-1,3,11-cembratriene-15R(α),16-diol-20-carboxyaldehyde]
[1]; x 10 mol ratio/TPA
  EBV-EA induction, percentage relative to the positive control value (100%): 90.6%
[1]; x 100 mol ratio/TPA
  EBV-EA induction, percentage relative to the positive control value (100%): 71.3%
[1]; x 500 mol ratio/TPA
  EBV-EA induction, percentage relative to the positive control value (100%): 52.4%
[1]; [3]
  EBV-EA induction, percentage relative to the positive control value (100%): 3.6%
Raji cells; x 10 mol ratio/TPA
  viability percentage of Raji cells (indicator cells): > 80%
Raji cells; x 100 mol ratio/TPA
  viability percentage of Raji cells (indicator cells): > 80%
Raji cells; x 500 mol ratio/TPA
  viability percentage of Raji cells (indicator cells): > 80%
Raji cells; [3]
  viability percentage of Raji cells (indicator cells): 60%
